Here are results for 21 compounds from patent US10501440B2, “Heteroarylcarboxamide derivatives as plasma kallikrein inhibitors” (Boehringer Ingelheim International GmbH, priority 2017, dated 2019).

Assay type in all cases: biochemical
Assay [1] deals with T1, KLKB1 (Homo sapiens (Human), UniProt P03952). Put plainly: Inhibition of KLKB1 using an endpoint assay (fluorogenic substrate H-Pro-Phe-Arg-AMC). The following applies: endpoint assay, 1 h at room temperature, 0.10 μM H-Pro-Phe-Arg-AMC; read-out: IC50. The method, then:
(§1) The ability of compounds of formula (I) to inhibit plasma kallikrein (KLKB1), Factor XIIa (FXIIa), Factor XIa (FXIa), Factor Xa (FXa), Factor IIa (alpha-thrombin; FIIa), plasmin, trypsin, tissue kallikrein 1 (KLK1), Factor Vila (FVIIa), or FVIIa complexed with Tissue Factor, phospholipids and CaCl2 (FVIIa/TF/PL/CaCl2) was determined using the following biochemical assays in assay buffer (100 mM Tris, 150 mM NaCL, adjusted to a pH of 7.8 with HCl, and containing 0.1% (w/v) BSA and 0.05% (v/v) Tween20) in the presence of 1% (v/v) DMSO:
Evaluation of the Inhibition of KLKB1 Using an Endpoint Assay
Human KLKB1 (0.01 U/mL; Enzyme Research Laboratories) or rat KLKB1 (0.625 nM; produced in-house) was incubated for 1 h at room temperature with 0.10 μM fluorogenic substrate H-Pro-Phe-Arg-AMC (11295 from Bachem) and various concentrations of the test compound in assay buffer. Subsequently, PPACK 11 (Calbiochem) was added as a stop solution to achieve a final concentration of 1 μM and fluorescence was measured using an Envision Reader (PerkinElmer) with the wavelength excitation setting of 355 nm and the wavelength emission setting of 460 nm.
(§2) The number of the compound corresponds to the number of the Example in the experimental section.

Assay [2] concerns the target T1, KLKB1. Put plainly: Inhibition of KLKB1 (Ki), kinetic assay. The note with it: 24° C., 0.25 mM H-Pro-Phe-Arg-AMC; IC50 corrected for KM of substrate. The method, then: as §1
Evaluation of the Inhibition of KLKB1 (Ki)
Measurements were performed in a kinetic interval every 2nd minute for 16 min using a Spectramax M5 (Molecular Devices) with the following settings of the wavelength excitation of 350 nm and wavelength emission of 450 nm.
as §2
Calculation of pIC50 and Pki Values
The pIC50 values were then fitted using a four-parametric fitting procedure using GraphPad Prism (version 6; GraphPad Software, Inc.).
Where the IC50 is in molar and the KM value in mM.

Assay [3] has as its target T1, KLKB1. The assay can be described thus: Inhibition of KLKB1 in kaolin activated human PPP. The note with it: for pIC50: read-out: IC50. The method, then: Evaluation of the Inhibition of KLKB1 in Kaolin Activated Human PPP
Platelet poor plasma (PPP) obtained from human wholeblood, anticoagulated with Na-Citrat, was incubated with various concentrations of the test compound together with either 25, 75, 250, or 750 μg/mL kaolin in assay buffer for 20 min at 37° C. such that for each kaolin dose used a concentration response was obtained for the test compound.
as §2

The target in assay [4] is T1, KLKB1. The assay can be described thus: Inhibition of human KLKB1 in dextran sulfate activated human PPP. The note with it: human platelet poor plasma (EDTA) activated with 12.5 μg/mL dextransulfate, 24° C.; read-out: IC50. The method, then:
Evaluation of the Inhibition of Human KLKB1 in Dextran Sulfate Activated Human PPP
Platelet poor plasma (PPP) obtained from human wholeblood, anticoagulated with EDTA, was activated with 12.5 μg/mL dextransulfate for 7 min on ice. The activated PPP was incubated with various concentrations of the test compound in assay buffer. Afterwards the mixture was incubated at 24° C. with 0.25 mM fluorogenic substrate H-Pro-Phe-Arg-AMC (11295 from Bachem) and measurements were performed in a kinetic interval every 2nd minute for 16 min using a Spectramax M5 (Molecular Devices) with the following settings of the wavelength excitation of 350 nm and wavelength emission of 450 nm.
as §2

[5] abbreviates: human platelet poor plasma (Na-Citrat), 25, 75, 250 or 750 μg/mL kaolin, global fit.
Setting [6] is: human platelet poor plasma (Na-Citrat), 25, 75, 250 or 750 μg/mL kaolin, global fit, read-out: IC90.

SMILES strings stand for the structures. pIC50, pKi: −log10 of the molar value. Read-outs that look alike come from different tables or passages of the source.

T1 sequence (P03952 391-638 limits assumed): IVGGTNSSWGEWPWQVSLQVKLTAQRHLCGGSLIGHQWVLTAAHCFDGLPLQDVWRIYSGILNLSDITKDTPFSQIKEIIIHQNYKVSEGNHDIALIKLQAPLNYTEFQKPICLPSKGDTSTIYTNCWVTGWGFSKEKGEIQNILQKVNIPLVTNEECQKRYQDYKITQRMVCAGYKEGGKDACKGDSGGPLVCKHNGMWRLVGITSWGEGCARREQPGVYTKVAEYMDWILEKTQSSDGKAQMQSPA
T1 sequence (P03952 20-390 partner limits assumed): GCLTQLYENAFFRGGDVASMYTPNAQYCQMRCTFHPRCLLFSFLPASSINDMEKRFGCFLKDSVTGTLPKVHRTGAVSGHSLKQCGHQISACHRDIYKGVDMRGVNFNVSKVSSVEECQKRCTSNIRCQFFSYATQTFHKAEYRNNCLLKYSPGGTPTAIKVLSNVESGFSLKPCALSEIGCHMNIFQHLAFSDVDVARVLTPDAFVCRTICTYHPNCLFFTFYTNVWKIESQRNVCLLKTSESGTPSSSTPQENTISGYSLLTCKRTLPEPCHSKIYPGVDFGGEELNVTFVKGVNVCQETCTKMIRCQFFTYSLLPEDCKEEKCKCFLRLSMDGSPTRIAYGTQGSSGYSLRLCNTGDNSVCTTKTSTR

For the compound `Cc1cc2c(c(N)n1)CC[C@H]2NC(=O)c1cnn(Cc2ccc(N3CC4CC4C3)nc2C)c1` (stereo partly shown) [Example 2], the negative logarithm of the IC50 (pIC50) in assay [1] was 9.52; in assay [3] (setting [5]), 7.78. In addition, the pKi in assay [2] was 9.52. The 90% effect concentration (IC90) in assay [3] (setting [6]) worked out at 134 nM.
As to `Cc1nc(N2CC3CC3C2)ccc1Cn1cc(C(=O)N[C@@H]2CCc3c2ccnc3N)c(C)n1` (stereo partly shown) [Example 3], the pIC50 in assay [1] was 9.15; in assay [3] (setting [5]), 7.70. Also, in assay [2], the pKi was 9.52. For the same compound, the IC90 in assay [3] (setting [6]) was 238 nM.
As for `Cc1nc(N2CC3CC3C2)ccc1Cn1cc(C(=O)N[C@@H]2CCc3c2ccnc3N)c(C(F)(F)F)n1` (stereo partly shown) [Example 4], the results for the pIC50 in assay [1] and in assay [3] (setting [5]) were 9.10 and 7.74, respectively. The pKi in assay [2] is 9.40. Also, the IC90 in assay [3] (setting [6]) came out at 446 nM.
On to `Cc1nc(N2CC3CC3C2)ccc1Cn1cc(C(=O)N[C@@H]2CCc3c2ccnc3N)nn1` (stereo partly shown) [Example 5], for which the negative logarithm of the IC50 (pIC50) in assay [4] is 7.21; in assay [1] it was 9.10. The compound also showed a pKi in assay [2] of 9.40.
Regarding `Cc1nc(N2CC3CC3C2)ccc1Cn1cc(C(=O)N[C@@H]2CCc3c2ccnc3N)c(C(C)C)n1` (stereo partly shown) [Example 6], in assay [1], the pIC50 is 9.00.
As for `Cc1nc(N2CC3C(C2)C3(F)F)ccc1Cn1cc(C(=O)N[C@@H]2CCc3c2ccnc3N)c(C(F)(F)F)n1` (stereo partly shown) [Example 7], the pIC50 was 8.96 in assay [1] and 7.75 in assay [3] (setting [5]). Also, in assay [2], the negative logarithm of the Ki (pKi) was 8.72. Besides, the IC90 in assay [3] (setting [6]) came out at 199 nM.
On to `Cc1nc(N2CC3C(C2)C3(F)F)ccc1Cn1cc(C(=O)N[C@@H]2CCc3c2ccnc3N)nn1` (stereo partly shown) [Example 8], for which the negative-log IC50 (pIC50) in assay [1] is 8.26.
As for `Cc1cc2c(c(N)n1)CC[C@H]2NC(=O)c1cnn(Cc2ccc(N3CC4C(C3)C4(F)F)nc2C)c1` (stereo partly drawn) [Example 10, N-[(5R)-1-Amino-3-methyl-5H,6H,7H-cyclopenta[c]pyridin-5-yl]-1-[(6-{6,6-difluoro-3-azabicyclo[3.1.0]hexan-3-yl}-2-methylpyridin-3-yl)methyl]-1H-pyrazole-4-carboxamide], the pIC50 in assay [1] was 9.40; in assay [3] (setting [5]), 7.79. Besides, in assay [2], the pKi is 9.40. In assay [3], the 90% effect level (IC90) was put at 96.2 nM.
Regarding `Cc1nc(N2C[C@@H]3[C@H](CO)[C@@H]3C2)ccc1Cn1cc(C(=O)N[C@@H]2CCc3c2ccnc3N)cn1` [Example 12], the negative logarithm of the IC50 (pIC50) in assay [4] was 7.33; in assay [1], 8.72. In assay [2], this compound showed a negative logarithm of the Ki (pKi) of 9.22.
In the case of `Cc1cc2c(c(N)n1)CC[C@H]2NC(=O)c1cn(Cc2ccc(N3CC4CC4C3)nc2C)nc1C` (stereo partly drawn) [Example 15, N-[(5R)-1-Amino-3-methyl-5H,6H,7H-cyclopenta[c]pyridin-5-yl]-1-[(6-{3-azabicyclo[3.1.0]hexan-3-yl}-2-methylpyridin-3-yl)methyl]-3-methyl-1H-pyrazole-4-carboxamide], the pIC50 in assay [1] was 9.30. Moreover, the negative-log Ki (pKi) in assay [2] is 9.40.
With `Cc1nc(N2CC3CC3C2)ncc1Cn1cc(C(=O)N[C@@H]2CCc3c2ccnc3N)nn1` (stereo partly drawn) [Example 16, N-[(5R)-1-Amino-5H,6H,7H-cyclopenta[c]pyridin-5-yl]-1-[(2-{3-azabicyclo[3.1.0]hexan-3-yl}-4-methylpyrimidin-5-yl)methyl]-1H-1,2,3-triazole-4-carboxamide], the pIC50 in assay [1] is 8.28. Moreover, the pKi in assay [2] is 8.66.
`Cc1cc2c(c(N)n1)CC[C@H]2NC(=O)c1cnn(Cc2cnc(N3CC4CC4C3)nc2C)c1` (stereo partly drawn) [Example 17, N-[(5R)-1-Amino-3-methyl-5H,6H,7H-cyclopenta[c]pyridin-5-yl]-1-[(2-{3-azabicyclo[3.1.0]hexan-3-yl}-4-methylpyrimidin-5-yl)methyl]-1H-pyrazole-4-carboxamide]: the results for the negative logarithm of the IC50 (pIC50) in assay [1] and in assay [3] (setting [5]) were 9.00 and 7.28, respectively. This compound also showed a negative logarithm of the Ki (pKi) in assay [2] of 9.30. In addition, it took 511 nM to reach the 90% level in assay [3] (IC90).
On to `Cc1cc2c(c(N)n1)CC[C@H]2NC(=O)c1cn(Cc2cnc(N3CC4CC4C3)nc2C)nn1` (stereo partly drawn) [Example 18, N-[(5R)-1-Amino-3-methyl-5H,6H,7H-cyclopenta[c]pyridin-5-yl]-1-[(2-{3-azabicyclo[3.1.0]hexan-3-yl}-4-methylpyrimidin-5-yl)methyl]-1H-1,2,3-triazole-4-carboxamide], for which the negative logarithm of the IC50 (pIC50) in assay [1] is 8.92. The compound further showed a pKi in assay [2] of 9.30.
Turning to `Cc1nc(N2CC3CC3C2)ccc1Cn1cc(C(=O)N[C@@H]2CCc3c2ccnc3N)c(C(F)F)n1` (stereo partly drawn) [Example 19, N-[(5R)-1-Amino-5H,6H,7H-cyclopenta[c]pyridin-5-yl]-1-[(6-{3-azabicyclo[3.1.0]hexan-3-yl}-2-methylpyridin-3-yl)methyl]-3-(difluoromethyl)-1H-pyrazole-4-carboxamide], in assay [1], the negative logarithm of the IC50 (pIC50) is 9.00.
On the same count and under the same terms, the value for `Cc1nc(N2CC3C(C2)C3(F)F)ncc1Cn1cc(C(=O)N[C@@H]2CCc3c2ccnc3N)nn1` (stereo partly drawn) [Example 20, N-[(5R)-1-Amino-5H,6H,7H-cyclopenta[c]pyridin-5-yl]-1-[(2-{6,6-difluoro-3-azabicyclo[3.1.0]hexan-3-yl}-4-methylpyrimidin-5-yl)methyl]-1H-1,2,3-triazole-4-carboxamide] was 8.41; that for `Cc1cc2c(c(N)n1)CC[C@H]2NC(=O)c1cn(Cc2cnc(N3CC4C(C3)C4(F)F)nc2C)nn1` (stereo partly drawn) [Example 21, N-[(5R)-1-Amino-3-methyl-5H,6H,7H-cyclopenta[c]pyridin-5-yl]-1-[(2-{6,6-difluoro-3-azabicyclo[3.1.0]hexan-3-yl}-4-methylpyrimidin-5-yl)methyl]-1H-1,2,3-triazole-4-carboxamide] was 8.85; that for `COc1nn(Cc2ccc(N3CC4CC4C3)nc2C)cc1C(=O)N[C@@H]1CCc2c1ccnc2N` (stereo partly drawn) [Example 22, N-[(5R)-1-Amino-5H,6H,7H-cyclopenta[c]pyridin-5-yl]-1-[(6-{3-azabicyclo[3.1.0]hexan-3-yl}-2-methylpyridin-3-yl)methyl]-3-methoxy-1H-pyrazole-4-carboxamide] was 8.96.
`Cc1nc(N2CC3C(C2)C3(C)C)ccc1Cn1cc(C(=O)N[C@@H]2CCc3c2ccnc3N)cn1` (stereo partly drawn) [Example 23, N-[(5R)-1-Amino-5H,6H,7H-cyclopenta[c]pyridin-5-yl]-1-[(6-{6,6-dimethyl-3-azabicyclo[3.1.0]hexan-3-yl}-2-methylpyridin-3-yl)methyl]-1H-pyrazole-4-carboxamide]: the pIC50 in assay [1] was 8.00.
Regarding `Cc1nc(N2C[C@@H]3[C@H](C)[C@@H]3C2)ccc1Cn1cc(C(=O)N[C@@H]2CCc3c2ccnc3N)cn1` [Example 24, 1-[2-Methyl-6-((1S,5R,6R)-6-methyl-3-aza-bicyclo[3.1.0]hex-3-yl)-pyridin-3-ylmethyl]-1H-pyrazole-4-carboxylic acid ((R)-1-amino-6,7-dihydro-5H-[2]pyrindin-5-yl)-amide], the pIC50 in assay [1] was 9.22.
For `Cc1nc(N2CC3(CCC3)C2)ccc1Cn1cc(C(=O)N[C@@H]2CCc3c2ccnc3N)cn1` [Example 25, 1-[6-(2-Aza-spiro[3.3]hept-2-yl)-2-methyl-pyridin-3-ylmethyl]-1H-pyrazole-4-carboxylic acid ((R)-1-amino-6,7-dihydro-5H-[2]pyrindin-5-yl)-amide], the negative-log IC50 (pIC50) in assay [1] was 8.68.
Still for that read-out and setting: the value for `Cc1nc(N2CC3(CC3)C2)ccc1Cn1cc(C(=O)N[C@@H]2CCc3c2ccnc3N)cn1` [Example 26, 1-[6-(5-Aza-spiro[2.3]hex-5-yl)-2-methyl-pyridin-3-ylmethyl]-1H-pyrazole-4-carboxylic acid ((R)-1-amino-6,7-dihydro-5H-[2]pyrindin-5-yl)-amide] was 8.92.
